The supplement of paper PMC10307832

Assays:
Experiment in all cases: relative viability (nuclei count vs DMSO), 5 days (fraction); higher = more cells survive
Doramapimod + Tozasertib = compound: Cc1ccc(-n2nc(C(C)(C)C)cc2NC(=O)Nc2ccc(OCCN3CCOCC3)c3ccccc23)cc1 [Doramapimod] + Cc1cc(Nc2cc(N3CCN(C)CC3)nc(Sc3ccc(NC(=O)C4CC4)cc3)n2)n[nH]1 [Tozasertib] (partner 0.1 µM)
In short: (§1)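 Five library-drug doses in √10 steps were combined with a fixed anchor-drug dose, or a single drug was given alone, by pin tool to lung cancer cell lines in 1536-well plates the day after seeding. Nuclei were stained and counted after 5 days. Relative viability is the nuclei count in treated wells over that in vehicle wells, taken as the median of duplicate plates.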

Doramapimod + Luminespib = compound: Cc1ccc(-n2nc(C(C)(C)C)cc2NC(=O)Nc2ccc(OCCN3CCOCC3)c3ccccc23)cc1 [Doramapimod] + CCNC(=O)c1noc(-c2cc(C(C)C)c(O)cc2O)c1-c1ccc(CN2CCOCC2)cc1 [Luminespib] (partner 0.01 µM)
In short: as §1

RAF265 + AZD7762 = compound: Cn1c(Nc2ccc(C(F)(F)F)cc2)nc2cc(Oc3ccnc(-c4ncc(C(F)(F)F)[nH]4)c3)ccc21 [RAF265] + NC(=O)Nc1cc(-c2cccc(F)c2)sc1C(=O)N[C@H]1CCCNC1 [AZD7762] (partner 0.2 µM)
In short: as §1

IPA-3 + Tozasertib = compound: C1=CC=C2C(=C1)C=CC(=C2SSC3=C(C=CC4=CC=CC=C43)O)O [IPA-3] + Cc1cc(Nc2cc(N3CCN(C)CC3)nc(Sc3ccc(NC(=O)C4CC4)cc3)n2)n[nH]1 [Tozasertib] (partner 0.1 µM)
In short: as §1

Cell Line	relative viability (Doramapimod + Tozasertib; first compound 0.02 µM)	relative viability (Doramapimod + Tozasertib; first compound 0.06325 µM)	relative viability (Doramapimod + Tozasertib; first compound 0.2 µM)	relative viability (Doramapimod + Tozasertib; first compound 0.6325 µM)	relative viability (Doramapimod + Tozasertib; first compound 2 µM)	relative viability (Doramapimod + Luminespib; first compound 0.02 µM)	relative viability (Doramapimod + Luminespib; first compound 0.06325 µM)	relative viability (Doramapimod + Luminespib; first compound 0.2 µM)	relative viability (Doramapimod + Luminespib; first compound 0.6325 µM)	relative viability (Doramapimod + Luminespib; first compound 2 µM)	relative viability (RAF265 + AZD7762; first compound 0.01 µM)	relative viability (RAF265 + AZD7762; first compound 0.03162 µM)	relative viability (RAF265 + AZD7762; first compound 0.1 µM)	relative viability (RAF265 + AZD7762; first compound 0.3162 µM)	relative viability (RAF265 + AZD7762; first compound 1 µM)	relative viability (IPA-3 + Tozasertib; first compound 0.2 µM)	relative viability (IPA-3 + Tozasertib; first compound 0.6325 µM)	relative viability (IPA-3 + Tozasertib; first compound 2 µM)	relative viability (IPA-3 + Tozasertib; first compound 6.325 µM)	relative viability (IPA-3 + Tozasertib; first compound 20 µM)
NCI-H1944	0.234	0.229	0.235	0.256	0.235	0.626	0.777	0.718	0.769	0.655	0.75	0.617	0.512	0.448	0.365	0.263	0.268	0.264	0.246	0.26
NCI-H2347	0.552	–	0.565	0.587	0.555	0.0162	–	0.601	0.5	0.492	0.74	0.7	0.832	0.46	0.22	0.585	0.598	0.614	0.593	0.656
201T	0.914	0.918	0.935	1.05	0.906	1.01	1.01	0.99	1.18	1	0.596	0.578	0.653	0.668	0.783	0.99	1	0.908	0.922	1.06
PC-14	0.582	0.602	0.588	0.647	0.525	0.146	0.196	0.18	0.159	0.152	0.424	0.451	0.369	–	0.378	0.693	0.612	0.647	0.539	0.649
NCI-H727	0.633	0.644	0.559	0.702	0.536	0.363	0.312	0.342	0.306	0.225	0.471	0.67	0.576	0.494	0.606	0.659	0.615	0.828	0.529	0.568
ChaGo-K-1	0.225	0.227	0.229	0.215	0.217	0.594	0.49	0.595	0.52	0.541	0.708	0.877	0.812	0.767	0.709	0.228	0.236	0.231	0.221	0.251
HOP-62	0.386	0.356	0.382	0.424	0.28	0.957	1.04	1.07	0.931	0.797	0.572	0.553	0.462	0.482	0.422	0.388	0.312	0.395	0.382	0.402
NCI-H1915	0.438	0.464	0.489	0.459	0.384	0.58	0.821	0.793	0.9	0.712	0.649	0.655	0.663	0.602	0.41	0.466	0.425	0.446	0.428	0.513
BEN	0.533	0.402	0.499	0.325	0.429	0.537	0.56	0.351	0.13	0.352	0.675	0.805	0.837	0.674	0.661	0.528	0.582	0.48	0.5	0.588
NCI-H1437	0.416	0.431	0.394	0.404	0.401	1.2	1.21	1.16	1.15	1.2	1.08	1.13	1.2	1.15	1.1	0.482	0.387	0.416	0.394	0.468
EMC-BAC-2	0.284	0.286	0.272	0.304	0.238	1.28	1.17	1.12	1.22	1.15	1.09	1.03	0.675	0.724	0.486	0.279	0.296	0.312	0.303	0.269
NCI-H647	0.317	0.288	0.328	0.24	0.327	0.189	0.224	0.151	0.347	0.154	0.578	0.452	0.404	0.332	0.262	0.463	0.298	0.266	0.415	0.161
LXF-289	0.207	0.177	0.177	0.19	0.203	0.644	0.757	0.607	0.732	0.616	1.12	1.26	1.24	0.849	0.871	0.23	0.164	0.218	0.186	0.192
LOU-NH91	0.715	0.66	0.798	0.76	0.488	0.408	0.324	0.28	0.315	0.282	0.756	0.71	0.687	0.631	0.551	0.649	0.669	0.649	0.656	0.742
NCI-H23	0.622	0.34	0.366	0.433	0.326	0.23	0.204	0.218	0.209	0.221	0.309	0.263	0.228	0.182	0.169	0.506	0.367	0.432	0.38	0.354
NCI-H1993	0.688	0.564	0.622	0.598	0.565	1.85	0.87	0.64	0.975	0.744	0.784	0.82	0.791	0.602	0.635	0.625	0.578	0.586	0.56	0.601

Cell Line	relative viability (Doramapimod + Tozasertib; first compound 0.02 µM)	relative viability (Doramapimod + Tozasertib; first compound 0.06325 µM)	relative viability (Doramapimod + Tozasertib; first compound 0.2 µM)	relative viability (Doramapimod + Tozasertib; first compound 0.6325 µM)	relative viability (Doramapimod + Tozasertib; first compound 2 µM)	relative viability (Doramapimod + Luminespib; first compound 0.02 µM)	relative viability (Doramapimod + Luminespib; first compound 0.06325 µM)	relative viability (Doramapimod + Luminespib; first compound 0.2 µM)	relative viability (Doramapimod + Luminespib; first compound 0.6325 µM)	relative viability (Doramapimod + Luminespib; first compound 2 µM)	relative viability (RAF265 + AZD7762; first compound 0.01 µM)	relative viability (RAF265 + AZD7762; first compound 0.03162 µM)	relative viability (RAF265 + AZD7762; first compound 0.1 µM)	relative viability (RAF265 + AZD7762; first compound 0.3162 µM)	relative viability (RAF265 + AZD7762; first compound 1 µM)	relative viability (IPA-3 + Tozasertib; first compound 0.2 µM)	relative viability (IPA-3 + Tozasertib; first compound 0.6325 µM)	relative viability (IPA-3 + Tozasertib; first compound 2 µM)	relative viability (IPA-3 + Tozasertib; first compound 6.325 µM)	relative viability (IPA-3 + Tozasertib; first compound 20 µM)
HCC-827	0.422	0.414	0.422	0.375	0.356	0.569	0.611	0.751	0.831	0.625	0.213	0.357	0.215	–	0.197	0.446	0.423	0.402	0.442	0.438
NCI-H650	0.757	0.823	0.804	0.798	0.654	0.869	0.83	0.827	0.853	0.713	0.969	0.966	0.996	0.551	0.748	0.823	0.694	0.786	0.703	0.831
CAL-12T	0.298	0.341	0.338	0.272	0.315	0.363	0.381	0.345	0.364	0.395	0.56	0.631	0.678	0.598	0.504	0.371	0.301	0.384	0.343	0.297
NCI-H838	0.299	0.27	0.285	0.253	0.257	0.406	0.372	0.245	0.347	0.268	0.865	0.953	0.964	1.03	0.841	0.32	0.268	0.304	0.282	0.27
RERF-LC-KJ	0.506	0.535	0.609	0.516	0.498	1.35	1.16	1.24	1.36	1.2	1.1	1.03	0.765	0.756	0.557	0.513	0.452	0.471	0.456	0.403
HCC-44	0.961	1.01	1.19	0.913	0.84	1.06	1.05	1	1.24	0.983	1	0.985	1.03	1	0.955	1.09	0.953	0.996	0.71	0.93
A-427	0.248	0.216	0.218	–	0.189	0.979	0.806	1.08	–	0.918	0.798	0.746	0.641	0.448	0.247	0.18	0.242	0.201	0.224	0.248
NCI-H522	0.501	0.489	0.579	0.59	0.471	0.929	1.07	1	1.12	1.09	0.801	0.872	0.887	0.985	0.897	0.596	0.535	0.72	0.621	0.565
NCI-H322M	0.519	0.487	0.532	0.497	0.531	0.661	0.914	0.831	0.946	1.02	0.55	0.717	0.493	0.381	0.404	0.502	0.408	0.527	0.498	0.513
ABC-1	0.235	0.228	0.183	0.189	0.123	0.423	0.67	0.156	0.863	0.555	0.993	0.771	0.798	1.06	0.47	0.18	0.183	0.19	0.188	0.185
SW 900	0.538	0.584	0.618	0.479	0.481	0.169	0.185	0.162	0.155	0.165	0.709	0.483	0.671	0.466	0.348	0.56	0.53	0.496	0.566	0.56
LK-2	0.186	0.182	0.18	0.179	0.192	0.219	0.202	0.177	0.158	0.169	0.506	0.432	0.537	0.448	0.371	0.168	0.192	0.176	0.142	0.155
NCI-H596	0.939	0.862	1.11	0.982	0.883	0.927	1	1	0.994	0.842	1.29	1.08	1.03	0.877	0.548	0.968	0.907	1.11	1.02	1.04
NCI-H1793	0.27	0.319	0.319	0.352	0.26	0.157	0.174	0.144	0.23	0.161	0.413	0.572	0.332	0.197	0.132	0.316	0.271	0.368	0.377	0.425
NCI-H2405	0.774	0.703	0.675	0.869	0.635	0.639	0.591	0.794	0.885	0.522	0.849	0.723	0.634	0.549	0.326	0.796	0.755	0.727	0.748	0.774
LCLC-103H	0.431	0.529	0.388	0.544	0.432	0.927	0.99	0.884	1.08	0.925	0.815	0.911	0.767	0.727	0.598	0.582	0.528	0.577	0.443	0.539
